Data as given in patent publication US20120122860A1, “SOLID FORMS OF SULFONAMIDES AND AMINO ACIDS” (Plexxikon, Inc., priority 2009, published 2012).

Columns and labels:
Kit = Kit (Homo sapiens, UniProt P10721); assay: Kinase activity assay, Kit
B-Raf V600E = B-Raf V600E (Homo sapiens, UniProt P15056, V600E); assay: Kinase activity assay, B-Raf V600E; type: biochemical; conditions: read-out: activity toward kinase B-Raf V600E, IC50
A-Raf = molecular target: T1, A-Raf (Homo sapiens, UniProt P10398); assay: Kinase activity assay, A-Raf
T1 sequence (P10398 1-606): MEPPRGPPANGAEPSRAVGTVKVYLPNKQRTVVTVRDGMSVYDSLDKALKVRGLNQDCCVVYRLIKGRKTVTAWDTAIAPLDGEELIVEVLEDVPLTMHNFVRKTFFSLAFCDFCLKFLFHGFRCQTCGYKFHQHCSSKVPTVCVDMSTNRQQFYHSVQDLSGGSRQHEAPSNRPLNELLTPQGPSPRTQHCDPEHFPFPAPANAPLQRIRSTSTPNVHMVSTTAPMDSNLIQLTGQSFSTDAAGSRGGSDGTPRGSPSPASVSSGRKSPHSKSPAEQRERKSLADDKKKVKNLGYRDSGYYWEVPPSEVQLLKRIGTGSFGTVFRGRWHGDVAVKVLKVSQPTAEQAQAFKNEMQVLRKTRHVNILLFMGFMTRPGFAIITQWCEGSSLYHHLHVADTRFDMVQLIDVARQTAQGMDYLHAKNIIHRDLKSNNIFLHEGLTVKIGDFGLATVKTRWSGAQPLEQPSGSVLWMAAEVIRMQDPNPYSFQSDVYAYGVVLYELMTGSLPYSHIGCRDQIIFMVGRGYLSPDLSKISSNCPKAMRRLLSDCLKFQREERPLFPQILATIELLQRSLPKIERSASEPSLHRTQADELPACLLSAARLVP

MAP4K4 = MAP4K4 (Homo sapiens, UniProt O95819); assay: Kinase activity assay, MAP4K4
MAP4K4, sequence (O95819 whole entry): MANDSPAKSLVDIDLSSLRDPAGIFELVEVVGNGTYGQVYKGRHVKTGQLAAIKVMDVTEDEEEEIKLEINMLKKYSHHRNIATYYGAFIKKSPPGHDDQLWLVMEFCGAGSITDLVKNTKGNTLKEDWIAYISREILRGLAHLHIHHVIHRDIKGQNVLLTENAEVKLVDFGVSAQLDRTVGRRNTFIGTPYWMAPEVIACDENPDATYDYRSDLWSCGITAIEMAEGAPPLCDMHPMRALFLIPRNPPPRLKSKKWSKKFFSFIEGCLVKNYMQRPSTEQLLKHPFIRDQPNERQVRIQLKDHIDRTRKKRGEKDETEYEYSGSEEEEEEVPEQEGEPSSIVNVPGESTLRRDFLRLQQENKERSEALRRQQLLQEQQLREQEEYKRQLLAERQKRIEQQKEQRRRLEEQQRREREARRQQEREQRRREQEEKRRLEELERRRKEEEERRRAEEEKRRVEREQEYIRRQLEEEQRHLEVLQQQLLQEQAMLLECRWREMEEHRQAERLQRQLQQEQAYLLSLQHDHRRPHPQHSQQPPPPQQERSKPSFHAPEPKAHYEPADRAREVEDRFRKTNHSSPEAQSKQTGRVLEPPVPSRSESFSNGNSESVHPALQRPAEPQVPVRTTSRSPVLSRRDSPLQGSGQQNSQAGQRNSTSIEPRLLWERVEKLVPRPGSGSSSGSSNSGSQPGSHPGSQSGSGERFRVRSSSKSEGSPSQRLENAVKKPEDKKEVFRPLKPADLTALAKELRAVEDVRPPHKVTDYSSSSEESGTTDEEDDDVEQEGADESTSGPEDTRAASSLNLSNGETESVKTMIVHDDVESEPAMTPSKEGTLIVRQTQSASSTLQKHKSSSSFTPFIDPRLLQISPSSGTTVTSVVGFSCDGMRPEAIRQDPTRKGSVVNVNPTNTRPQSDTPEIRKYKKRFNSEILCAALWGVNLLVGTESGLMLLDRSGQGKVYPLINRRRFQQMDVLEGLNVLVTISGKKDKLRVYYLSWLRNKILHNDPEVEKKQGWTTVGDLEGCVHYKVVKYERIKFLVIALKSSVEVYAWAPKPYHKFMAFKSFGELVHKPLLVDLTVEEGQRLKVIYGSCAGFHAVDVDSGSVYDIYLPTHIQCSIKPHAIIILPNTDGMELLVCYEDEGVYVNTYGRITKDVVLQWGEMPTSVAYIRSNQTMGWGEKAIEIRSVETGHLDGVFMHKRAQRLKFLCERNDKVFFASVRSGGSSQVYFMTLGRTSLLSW

Src = Src (Homo sapiens, UniProt P12931); assay: Kinase activity assay, Src
Kdr = Kdr (Homo sapiens, UniProt P35968); assay: Kinase activity assay, Kdr
Kdr, sequence (P35968 20-1356): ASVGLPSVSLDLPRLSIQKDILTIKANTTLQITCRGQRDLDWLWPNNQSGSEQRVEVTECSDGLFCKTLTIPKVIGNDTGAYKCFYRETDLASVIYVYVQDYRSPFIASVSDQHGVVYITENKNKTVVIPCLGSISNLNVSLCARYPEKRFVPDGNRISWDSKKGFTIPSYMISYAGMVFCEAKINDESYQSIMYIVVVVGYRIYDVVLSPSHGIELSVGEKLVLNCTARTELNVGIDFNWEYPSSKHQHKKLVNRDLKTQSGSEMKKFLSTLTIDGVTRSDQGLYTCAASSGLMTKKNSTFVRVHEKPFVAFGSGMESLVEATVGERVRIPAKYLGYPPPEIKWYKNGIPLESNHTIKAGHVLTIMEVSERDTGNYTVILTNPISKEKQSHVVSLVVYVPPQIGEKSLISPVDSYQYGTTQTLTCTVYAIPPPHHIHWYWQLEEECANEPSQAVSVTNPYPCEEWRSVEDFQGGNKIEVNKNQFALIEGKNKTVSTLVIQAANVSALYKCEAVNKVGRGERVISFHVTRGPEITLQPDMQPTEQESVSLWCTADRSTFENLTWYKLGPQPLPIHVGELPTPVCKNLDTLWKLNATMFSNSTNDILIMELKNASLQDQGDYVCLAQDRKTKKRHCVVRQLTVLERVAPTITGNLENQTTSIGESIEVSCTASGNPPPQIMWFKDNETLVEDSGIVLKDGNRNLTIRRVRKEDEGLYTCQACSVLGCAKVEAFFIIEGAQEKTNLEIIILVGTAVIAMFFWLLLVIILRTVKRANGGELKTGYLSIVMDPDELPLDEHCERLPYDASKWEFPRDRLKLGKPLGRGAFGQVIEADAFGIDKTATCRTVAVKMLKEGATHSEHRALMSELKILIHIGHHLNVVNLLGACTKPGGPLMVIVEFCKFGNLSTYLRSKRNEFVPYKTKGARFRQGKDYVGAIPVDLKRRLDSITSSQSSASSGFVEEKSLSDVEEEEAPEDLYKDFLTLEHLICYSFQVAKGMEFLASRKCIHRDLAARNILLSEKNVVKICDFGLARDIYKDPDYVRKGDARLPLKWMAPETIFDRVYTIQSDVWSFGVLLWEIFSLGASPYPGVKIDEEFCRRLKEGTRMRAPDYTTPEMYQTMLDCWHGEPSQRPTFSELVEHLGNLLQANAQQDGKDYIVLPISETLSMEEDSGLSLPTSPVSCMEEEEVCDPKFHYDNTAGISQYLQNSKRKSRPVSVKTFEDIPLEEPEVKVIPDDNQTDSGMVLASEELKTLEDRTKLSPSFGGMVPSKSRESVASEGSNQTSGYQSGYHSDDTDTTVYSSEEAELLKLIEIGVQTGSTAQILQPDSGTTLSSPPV

B-Raf = B-Raf (Homo sapiens, UniProt P15056); assay: Kinase activity assay, B-Raf; type: biochemical; conditions: read-out: activity toward kinase B-Raf, IC50
B-Raf, sequence (P15056 whole entry): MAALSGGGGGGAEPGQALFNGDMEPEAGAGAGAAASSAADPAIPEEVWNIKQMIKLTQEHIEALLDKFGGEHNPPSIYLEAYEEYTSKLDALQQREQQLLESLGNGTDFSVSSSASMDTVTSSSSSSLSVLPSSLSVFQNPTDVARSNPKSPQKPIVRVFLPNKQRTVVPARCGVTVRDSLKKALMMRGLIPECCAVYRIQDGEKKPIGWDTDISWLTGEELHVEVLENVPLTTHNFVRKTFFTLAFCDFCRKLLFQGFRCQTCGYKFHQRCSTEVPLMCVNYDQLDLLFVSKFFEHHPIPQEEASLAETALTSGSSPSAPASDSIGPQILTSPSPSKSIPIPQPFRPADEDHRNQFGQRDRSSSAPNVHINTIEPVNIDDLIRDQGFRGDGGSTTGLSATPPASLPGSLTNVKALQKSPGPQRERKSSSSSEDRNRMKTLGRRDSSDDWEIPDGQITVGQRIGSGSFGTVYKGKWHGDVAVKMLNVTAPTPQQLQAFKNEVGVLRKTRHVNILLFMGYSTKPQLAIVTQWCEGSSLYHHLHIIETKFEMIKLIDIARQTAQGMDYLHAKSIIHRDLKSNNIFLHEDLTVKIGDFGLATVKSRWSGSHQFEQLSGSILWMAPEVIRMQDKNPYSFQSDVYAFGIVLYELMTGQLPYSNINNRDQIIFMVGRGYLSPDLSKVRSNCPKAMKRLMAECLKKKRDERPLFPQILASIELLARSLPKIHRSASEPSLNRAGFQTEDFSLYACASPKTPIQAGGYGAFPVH

Fms = Fms (Homo sapiens, UniProt P07333); assay: Kinase activity assay, Fms
Fms, sequence (P07333 20-972): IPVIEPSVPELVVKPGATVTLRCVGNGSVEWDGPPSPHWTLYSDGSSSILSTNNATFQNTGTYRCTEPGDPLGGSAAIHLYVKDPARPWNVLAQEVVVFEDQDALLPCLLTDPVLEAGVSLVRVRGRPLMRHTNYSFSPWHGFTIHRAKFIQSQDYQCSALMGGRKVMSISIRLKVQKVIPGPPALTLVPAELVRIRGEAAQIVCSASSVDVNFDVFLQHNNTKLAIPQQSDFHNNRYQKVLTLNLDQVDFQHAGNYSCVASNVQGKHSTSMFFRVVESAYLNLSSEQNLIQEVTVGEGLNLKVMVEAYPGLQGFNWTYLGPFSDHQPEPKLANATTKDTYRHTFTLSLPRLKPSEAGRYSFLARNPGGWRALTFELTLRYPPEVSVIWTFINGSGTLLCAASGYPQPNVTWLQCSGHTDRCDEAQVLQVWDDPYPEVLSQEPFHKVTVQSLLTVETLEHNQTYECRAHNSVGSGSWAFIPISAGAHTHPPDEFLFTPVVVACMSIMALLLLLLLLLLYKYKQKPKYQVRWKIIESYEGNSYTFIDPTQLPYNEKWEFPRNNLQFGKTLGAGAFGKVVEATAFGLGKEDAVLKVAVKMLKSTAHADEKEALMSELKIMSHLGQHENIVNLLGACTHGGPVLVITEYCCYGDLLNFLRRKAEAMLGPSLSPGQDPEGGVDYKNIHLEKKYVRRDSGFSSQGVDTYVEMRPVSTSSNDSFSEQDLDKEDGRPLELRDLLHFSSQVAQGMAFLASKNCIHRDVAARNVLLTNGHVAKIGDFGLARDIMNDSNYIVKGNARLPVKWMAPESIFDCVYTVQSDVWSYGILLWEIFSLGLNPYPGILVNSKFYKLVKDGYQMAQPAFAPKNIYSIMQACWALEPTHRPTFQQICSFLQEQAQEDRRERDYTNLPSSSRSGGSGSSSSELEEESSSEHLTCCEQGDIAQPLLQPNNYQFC

C-Raf = C-Raf (Homo sapiens, UniProt P04049); assay: Kinase activity assay, C-Raf
C-Raf, sequence (P04049 whole entry): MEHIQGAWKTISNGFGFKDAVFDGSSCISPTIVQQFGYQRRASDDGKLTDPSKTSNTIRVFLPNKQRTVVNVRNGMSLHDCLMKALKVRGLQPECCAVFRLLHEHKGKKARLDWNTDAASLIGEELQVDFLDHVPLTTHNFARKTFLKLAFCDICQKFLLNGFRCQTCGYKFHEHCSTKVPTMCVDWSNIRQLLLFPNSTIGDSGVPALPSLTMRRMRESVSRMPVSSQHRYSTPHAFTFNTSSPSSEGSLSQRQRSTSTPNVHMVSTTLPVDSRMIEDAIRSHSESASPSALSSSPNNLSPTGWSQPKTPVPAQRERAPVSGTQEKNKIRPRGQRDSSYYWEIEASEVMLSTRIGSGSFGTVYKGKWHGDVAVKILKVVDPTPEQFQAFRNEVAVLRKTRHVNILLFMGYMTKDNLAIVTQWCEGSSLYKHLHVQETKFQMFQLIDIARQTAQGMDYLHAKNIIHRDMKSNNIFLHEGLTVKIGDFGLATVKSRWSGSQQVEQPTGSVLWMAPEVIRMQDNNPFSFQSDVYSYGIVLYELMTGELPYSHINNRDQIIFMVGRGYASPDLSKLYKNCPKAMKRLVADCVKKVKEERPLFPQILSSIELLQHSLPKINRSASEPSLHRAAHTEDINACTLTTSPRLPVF

Measured: IC50

B-Raf V600E, sequence (P15056 whole entry V600E): as the sequence (P15056 whole entry) above, with V600E counted along it

O=C(c1c(F)ccc(NS(=O)(=O)c2ccccc2F)c1F)c1c[nH]c2nccc(Cl)c12 [P-2017, N-[3-(4-Chloro-1H-pyrrolo[2,3-b]pyridine-3-carbonyl)-2,4-difluoro-phenyl]-2-fluoro-benzenesulfonamide]
≤ 10 µM: all assays above

CCCS(=O)(=O)Nc1ccc(F)c(C(=O)c2c[nH]c3ncc(CCC(=O)OC)cc23)c1F [P-2230, 3-{3-[2,6-Difluoro-3-(propane-1-sulfonylamino)-benzoyl]-1H-pyrrolo[2,3-b]pyridin-5-yl}-propionic acid methyl ester]
≤ 10 µM: all assays above

CS(=O)(=O)Nc1ccc(F)c(C(=O)c2c[nH]c3nccc(Cl)c23)c1F [P-2290, N-[3-(4-Chloro-1H-pyrrolo[2,3-b]pyridine-3-carbonyl)-2,4-difluoro-phenyl]-methanesulfonamide]
not listed: Fms
≤ 10 µM: all other assays above

Cc1cnc2[nH]cc(C(=O)c3c(F)ccc(NS(=O)(=O)c4cccc(F)c4)c3F)c2c1 [P-2016, N-[2,4-Difluoro-3-(5-methyl-1H-pyrrolo[2,3-b]pyridine-3-carbonyl)-phenyl]-3-fluoro-benzenesulfonamide]
not listed: Fms
≤ 10 µM: all other assays above

O=C(c1c(F)ccc(NS(=O)(=O)CC(F)(F)F)c1F)c1c[nH]c2ncc(Cl)cc12 [P-2339, 2,2,2-Trifluoro-ethanesulfonic acid [3-(5-chloro-1H-pyrrolo[2,3-b]pyridine-3-carbonyl)-2,4-difluoro-phenyl]-amide]
not listed: Kit
≤ 10 µM: all other assays above

N#Cc1cnc2[nH]cc(C(=O)c3c(F)ccc(NS(=O)(=O)c4ccccc4F)c3F)c2c1 [P-2011, N-[3-(5-Cyano-1H-pyrrolo[2,3-b]pyridine-3-carbonyl)-2,4-difluoro-phenyl]-2-fluoro-benzenesulfonamide]
not listed: Fms
≤ 10 µM: all other assays above

CCCS(=O)(=O)Nc1ccc(F)c(C(=O)c2c[nH]c3ncc(-c4ccc(N5CCCC5)nc4)cc23)c1F [P-2231, Propane-1-sulfonic acid {2,4-difluoro-3-[5-(6-pyrrolidin-1-yl-pyridin-3-yl)-1H-pyrrolo[2,3-b]pyridine-3-carbonyl]-phenyl}-amide]
not listed: Fms
≤ 10 µM: all other assays above

CC(C)S(=O)(=O)Nc1ccc(F)c(C(=O)c2c[nH]c3ncc(Cl)cc23)c1F [P-2275, Propane-2-sulfonic acid [3-(5-chloro-1H-pyrrolo[2,3-b]pyridine-3-carbonyl)-2,4-difluoro-phenyl]-amide]
not listed: Fms
≤ 10 µM: all other assays above

O=C(c1c(F)ccc(NS(=O)(=O)CCC(F)(F)F)c1F)c1c[nH]c2nccc(Cl)c12 [P-2329, 3,3,3-Trifluoro-propane-1-sulfonic acid [3-(4-chloro-1H-pyrrolo[2,3-b]pyridine-3-carbonyl)-2,4-difluoro-phenyl]-amide]
not listed: Fms
≤ 10 µM: all other assays above

CCS(=O)(=O)Nc1ccc(F)c(C(=O)c2c[nH]c3ncc(OC)cc23)c1F [P-2272, Ethanesulfonic acid [2,4-difluoro-3-(5-methoxy-1H-pyrrolo[2,3-b]pyridine-3-carbonyl)-phenyl]-amide]
not listed: Fms
≤ 10 µM: all other assays above

O=C(c1c(F)ccc(NS(=O)(=O)c2cccc(F)c2)c1F)c1c[nH]c2nccc(Cl)c12 [P-2019, N-[3-(4-Chloro-1H-pyrrolo[2,3-b]pyridine-3-carbonyl)-2,4-difluoro-phenyl]-3-fluoro-benzenesulfonamide]
not listed: Fms
≤ 10 µM: all other assays above

Cc1cnc2[nH]cc(C(=O)c3c(F)ccc(NS(=O)(=O)c4ccccc4F)c3F)c2c1 [P-2014, N-[2,4-Difluoro-3-(5-methyl-1H-pyrrolo[2,3-b]pyridine-3-carbonyl)-phenyl]-2-fluoro-benzenesulfonamide]
not listed: Fms
≤ 10 µM: all other assays above

N#Cc1ccnc2[nH]cc(C(=O)c3c(F)ccc(NS(=O)(=O)c4cc(F)ccc4F)c3F)c12 [P-2036, N-[3-(4-Cyano-1H-pyrrolo[2,3-b]pyridine-3-carbonyl)-2,4-difluoro-phenyl]-2,5-difluoro-benzenesulfonamide]
not listed: Fms
≤ 10 µM: all other assays above

COc1cnc2[nH]cc(C(=O)c3c(F)ccc(NS(=O)(=O)C(F)(F)F)c3F)c2c1 [P-2347, N-[2,4-Difluoro-3-(5-methoxy-1H-pyrrolo[2,3-b]pyridine-3-carbonyl)-phenyl]-C,C,C-trifluoro-methanesulfonamide]
not listed: Fms
≤ 10 µM: all other assays above

COc1cnc2[nH]cc(C(=O)c3c(F)ccc(NS(=O)(=O)CC(F)(F)F)c3F)c2c1 [P-2335, 2,2,2-Trifluoro-ethanesulfonic acid [2,4-difluoro-3-(5-methoxy-1H-pyrrolo[2,3-b]pyridine-3-carbonyl)-phenyl]-amide]
not listed: Fms
≤ 10 µM: all other assays above
